From patent US8968715B2, “Drug delivery systems for photodynamic therapy” (The University of British Columbia, priority 2000, dated 2015)
Entries after “also recorded” stand apart in the source; their conditions may differ.

Tests used:
[1] = Deposition of BPD-MA / F127 formulations on lactose crystals: hydration and filtration; format: physicochemical
Protocol: In this experiment the deposition of the photosensitizer BPD-MA with the block copolymer Pluronic® F127 onto the sugar lactose was examined. Formulations containing 5% (w/v) and a 10% (w/v) F127 were tested. 0.5 g lactose and 10 mg BPD-MA were added to two rotary evaporation flasks. A stock solution of […] F127 was prepared in CH2Cl2. 1.25 ml (for 5% w/v) and 2.5 ml (for 10% w/v) F127 stock solution was added to each flask. The final volume in each flask was made up to 5.0 ml with CH2Cl2 and the components mixed to ensure complete dissolution. The solvent was removed by rotary evacuation at 50° C., and the flask left under vacuum for a further 15 min at 23° C. Micro-thin film deposits were scraped from the walls and hydrated in 5 ml water at 50° C. The formulations were filtered twice using 0.2 μm syringe filters (Acrodisc, polysulphone).
The experimental conditions and components were the same as Example 15 with the exception of the following changes. A stock of 0.2 mg/ml F127 was prepared in ethanol and 0.65 ml (2.5% w/v) and 1.25 ml (5% w/v) of the stock solution was added to two flasks. The final volume was made up to 5.0 ml with ethanol and the contents dissolved with warming. Ethanol was removed by rotary evacuation at 50° C., left under vacuum for 15 min at room. Micro-thin film deposits were scraped from the walls and dissolved in 5 ml water at 50° C. as previously described. […]

[2] = BPD-MA drug loading and formulation stability in Pluronic copolymers (melt method, absorbance); format: physicochemical; conditions: 3 days storage at room temperature
Protocol: In this experiment the use of copolymers for drug loading capability and formulation stability over a 3 day period was examined using the photosensitizer drug BPD-MA. The criteria for choosing the copolymers were based on the solution and viscosity characteristics described in Example 1. The ‘melt’ method is used for the preparation and screening of the large number of samples and is described as follows. At temperatures above 50° C., poloxamers are in their molten state and serve as excellent solvents for tetrapyrrolic compounds, thus avoiding the need for pre-dissolution of drugs in organic solvents. 5 mg of BPD-MA was dissolved with the aid of vortex mixing and sonication at 55° C. into the polymer ‘melts’ to give a final concentration of 5% to 20% w/v of the respective Pluronic. To each melt sample, 2.5 ml of PBS was added to give a final BPD-MA concentration of 2 mg/ml. Samples were allowed to equilibrate to room temperature before drug loading was determined at time zero (T0). 1 ml of suspension was removed for centrifugation (Microfuge, 14,000 rpm, 30 min), and the rest filtered through 0.2 μm filters (Millipore). The filtrate was diluted 1:100 in PBS and the absorbance at 690±3 nm determined (uv-vis spectrophotometer Beckman DU-6401). This procedure was repeated 72 hours later following storage at room temperature and the absorbance measurement (T72).

[3] = tested on: M1 rhabdomyosarcoma tumor cells; assay: Tumor recurrence after PDT in tumor mouse model; format: in vivo, DBA/2 mouse
Protocol: Photosensitizer formulations were prepared in 10% w/v Pluronics as described in Example 4. BPD-MA was formulated in F127. B-ring compounds B-EA6 and B-B3, were prepared in P123 due to insufficient drug loading in F127. Liposomal BPD-MA formulation was Verteporfin™ and B-ring compounds were formulated in the same lipid composition. Where DMSO/plasma preparations were made, the DMSO dissolved drug was added directly to mouse plasma and the drug association with different plasma components was observed.
In these experiments the tumor model used was the DBA/2 mouse (males) inoculated intradermally with M1 rhabdomyosarcoma tumor cells (M1, ATCC. When tumors reached a diameter of 4-6 mm, the mice (n=10, unless other wise stated) were treated with photodynamic therapy (PDT). PDT involved intravenous injection of the formulated drug in 0.2 mL volume of PBS. This was followed by exposure of the tumor region to laser light (Argon pumped dye laser (5W), 690 nm, 50 J/cm^2) 15 min later. Animals were then monitored for tumor recurrence over a 20 day period post treatment.

[4] = Drug incorporation into 10% w/v Pluronic P123; format: physicochemical; conditions: for Drug concentration formulated in 10% P123: 10% P123, non-optimized systems
Protocol: Using formulation methods described in Example 5, the aim was to incorporate 2 mg/ml of B-B3 into 10% w/v P123. It was shown by this method that the B-B3 can typically be incorporated at ˜1.8 mg/ml drug (based on absorbance readings and a molar extinction coefficient of 30425) 24 h post-hydration. This translates to approximately 10% drug loss. Unincorporated drug undergoes aggregation in aqueous solutions, and is characterized by the appearance of a 730 nm absorbance peak. Although the formulations can be made completely aggregate free by centrifugation or sterile filtration through 0.2 μm filters, this adds another step in the manufacturing process, which can be avoided by increasing the copolymer:drug ratio.

[5] = tested on: L1210 cells; assay: Cellular uptake of photosensitizer formulations; format: cell-based; conditions: 3 μg/ml, FIG. 1
Protocol: The protocol for setting up the cell cultures and conditions for the cellular assay essentially followed Richter et al. (Proc. SPIE, 2078: 293-304, September 1993). L1210 cells in DMEM and 10% FBS (single experiment, 3 sets) were incubated with the formulations at a concentration of 3 μg/ml and examined for uptake in the cells over time. Cells were recovered by centrifugation, the pellet briefly rinsed, and the cells lysed by freeze thawing in the presence of 2% Triton X-100®. An equal volume of methanol was added and fluorescence was read at 694 nm (λex 440 nm).

[6] = pH studies of formulation stability; format: physicochemical; conditions: poloxamer formulations
Excerpt: This necessitates hydration of the solid drug-polymer with a very mild buffer to counteract acidification which occurs upon use of sterile packed distilled water as commonly practiced in clinical settings. Behavior of poloxamers is unaffected by pH, and the use of buffers would be entirely dependent on ionizable groups present on the drug substance.

[7] = tested on: MRL/lpr mouse; assay: Transcutaneous PDT treatment of arthritis, ankle width; format: in vivo; conditions: 0.5 mg/kg i.v.
Protocol: Arthritis in the MRL/lpr mouse strain was enhanced by giving 2 intradermal injections (thoracic and inguinal sites) with 0.05 ml of complete Freunds adjuvant containing 10 mg/ml heat-inactivated M. tuberculosis. PDT was given on days 0, 10 and 20 following CFA treatment. PDT was carried out as follows; 3 groups of MRL/lpr mice were injected intravenously with B-B3 at 0.5 mg/kg (copolymer or liposomal formulations), after which they were protected from light. The third group was injected with copolymer alone at an equivalent copolymer concentration to that found in the formulation. An hour later, they were exposed to light at 80 J/cm^2 for […] (8 mW/cm^2).
Ankle width measurements were taken every 5 days prior to PDT treatment.

benzoporphyrin derivative monoacid ring A [BPD-MA]
Filtration through 0.2 μm filter ([1]; 2.5% and 5% w/v F127 on lactose, ethanol as solvent): no resistance | Drug loss on filtration through 0.2 μm filters ([1]; 5% w/v and 10% w/v F127 on lactose, CH2Cl2 as solvent): no drug loss | Stability of BPD-MA formulations in Pluronic [2]: no loss of stability | Percent (%) Mice Tumor Free ([3]; Liposomal, 1.0 mg/kg, Day 7): 100% | Percent (%) Mice Tumor Free ([3]; Liposomal, 1.0 mg/kg, Day 14): 100% | Percent (%) Mice Tumor Free ([3]; Liposomal, 1.0 mg/kg, Day 20): 30% | Percent (%) Mice Tumor Free ([3]; Pluronic F127, 1.0 mg/kg, Day 7): 100% | Percent (%) Mice Tumor Free ([3]; Pluronic F127, 1.0 mg/kg, Day 14): 60% | Percent (%) Mice Tumor Free ([3]; Pluronic F127, 1.0 mg/kg, Day 20): 60% | Likelihood to remain tumor free, poloxamer formulation compared to liposomal BPD-MA ([3]; end of the 20 day period): twice as likely to remain tumor free | Drug concentration formulated in 10% P123 [4]: ≤ 4000 µg/mL | Incubation time at which uptake saturation level is achieved ([5]; liposomal formulation): 30 min | Incubation time of 50% uptake ([5]; liposomal formulation): approximately 5 min

C=Cc1c(C)c2cc3nc(cc4[nH]c(cc5nc(cc1[nH]2)C1(C)C5=CC=C(C(=O)OC)C1C(=O)OC)c(C)c4CCC(=O)OCCO)C(CCC(=O)OCCO)=C3C (stereo not shown) [B-EA6]
pH dependence of formulation stability [6]: does not display any pH-dependency

C=Cc1c(C)c2cc3nc(cc4[nH]c(cc5nc(cc1[nH]2)C1(C)C5=CC=C(C(=O)O)C1C(=O)OC)c(C)c4CCC(=O)OC)C(CCC(=O)OC)=C3C (stereo not shown) [B-B3]
pH dependence of formulation stability [6]: detrimental to formulation stability | Control of joint inflammation (increase in ankle swelling) ([7]; copolymer formulation, 80 J/cm^2, FIG. 2): highly effective in controlling the inflammation | Control of joint inflammation (increase in ankle swelling) ([7]; liposomal formulation, after day 25): exacerbation of the inflammatory condition | Control of joint inflammation (increase in ankle swelling) ([7]; liposomal formulation, earlier part of the study, FIG. 2, 0.5 mg/kg): improved suppression of the inflammation compared to controls; also recorded: better suppression of the inflammation compared to the controls | PDT efficacy in tumor model ([3]; plasma/DMSO preparation): completely ineffective for PDT purposes | Drug concentration formulated in 10% P123 [4]: approximately 1.8 mg/ml | Drug incorporated / retained 24 h post-hydration ([4]; aim 2 mg/ml into 10% w/v P123): ~1.8 mg/mL | Incubation time of 50% uptake level ([5]; copolymer Pluronic P123 formulation): close to ‘zero’ incubation time
